{
  "source": "PubChem BioAssay AID1963441",
  "about": "(Molecular Pharmacology Branch, DTP, NCI, 2024)",
  "system": "NCI-H1876 complex spheroid growth, % test/control",
  "assay": "Anticancer human tumor NCI-H1876 cell line growth inhibition [Asc];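 also: compound exposure lasted 7 days starting three days after seeding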;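 as to viability, T/C: 100% = DMSO vehicle control wells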",
  "details": "for pIC50: curve of first compound; for viability, T/C: stronger effect = lower value",
  "procedure,_shortened": "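Complex spheroids combining tumor cells with HUVEC endothelial cells and human MSCs, at 37 degrees C, 5% CO2; agents tested alone or combined, half-log dilutions from at or near clinical Cmax, or 10 microM if Cmax unknown.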",
  "key": {"[1]": {"details": "second compound 0.0316 µM, first compound 0.00316 µM"}, "[2]": {"details": "second compound 0.0316 µM, first compound 0.01 µM"}, "[3]": {"details": "second compound 0.0316 µM, first compound 0.0316 µM"}, "[4]": {"details": "second compound 0.0316 µM, first compound 0.1 µM"}, "[5]": {"details": "second compound 0.0316 µM, first compound 0.316 µM"}, "[6]": {"details": "second compound 0.0316 µM, first compound 1 µM"}, "[7]": {"details": "second compound 0.1 µM, first compound 0.00316 µM"}, "[8]": {"details": "second compound 0.1 µM, first compound 0.01 µM"}, "[9]": {"details": "second compound 0.1 µM, first compound 0.0316 µM"}, "[10]": {"details": "second compound 0.1 µM, first compound 0.1 µM"}, "[11]": {"details": "second compound 0.1 µM, first compound 0.316 µM"}, "[12]": {"details": "second compound 0.1 µM, first compound 1 µM"}, "[13]": {"details": "second compound 0.316 µM, first compound 0.00316 µM"}, "[14]": {"details": "second compound 0.316 µM, first compound 0.01 µM"}, "[15]": {"details": "second compound 0.316 µM, first compound 0.0316 µM"}, "[16]": {"details": "second compound 0.316 µM, first compound 0.1 µM"}, "[17]": {"details": "second compound 0.316 µM, first compound 0.316 µM"}, "[18]": {"details": "second compound 0.316 µM, first compound 1 µM"}, "[19]": {"details": "second compound 1 µM, first compound 0.00316 µM"}, "[20]": {"details": "second compound 1 µM, first compound 0.01 µM"}, "[21]": {"details": "second compound 1 µM, first compound 0.0316 µM"}, "[22]": {"details": "second compound 1 µM, first compound 0.1 µM"}, "[23]": {"details": "second compound 1 µM, first compound 0.316 µM"}, "[24]": {"details": "second compound 1 µM, first compound 1 µM"}},
  "note": "pIC50: −log10 of the molar value.",
  "data": [
    {"molecule": "CCN1CCN(Cc2ccc(Nc3ncc(F)c(-c4cc(F)c5nc(C)n(C(C)C)c5c4)n3)nc2)CC1", "note": "+ CNC(C)C(=O)NC1CN(S(=O)(=O)c2cccc(S(=O)(=O)N3CCC4CCC(C(=O)NC(c5ccccc5)c5ccccc5)N4C(=O)C(NC(=O)C(C)NC)C3)c2)CCC2CCC(C(=O)NC(c3ccccc3)c3ccccc3)N2C1=O", "values": [
      {"measurement": "pIC50", "setting": "second compound 0.00316 µM", "value": "< 6.00"},
      {"measurement": "pIC50", "setting": "second compound 0.01 µM", "value": "< 6.00"},
      {"measurement": "pIC50", "setting": "second compound 0.0316 µM", "value": "< 6.00"},
      {"measurement": "pIC50", "setting": "second compound 0.1 µM", "value": "< 6.00"},
      {"measurement": "pIC50", "setting": "second compound 0.316 µM", "value": "< 6.00"},
      {"measurement": "pIC50", "setting": "second compound 1 µM", "value": "< 6.00"},
      {"measurement": "viability, T/C", "setting": "second compound 0.00316 µM, first compound 0.00316 µM", "value": 104, "unit": "%"},
      {"measurement": "viability, T/C", "setting": "second compound 0.00316 µM, first compound 0.01 µM", "value": 89.2, "unit": "%"},
      {"measurement": "viability, T/C", "setting": "second compound 0.00316 µM, first compound 0.0316 µM", "value": 103, "unit": "%"},
      {"measurement": "viability, T/C", "setting": "second compound 0.00316 µM, first compound 0.1 µM", "value": 93.9, "unit": "%"},
      {"measurement": "viability, T/C", "setting": "second compound 0.00316 µM, first compound 0.316 µM", "value": 125, "unit": "%"},
      {"measurement": "viability, T/C", "setting": "second compound 0.00316 µM, first compound 1 µM", "value": 128, "unit": "%"},
      {"measurement": "viability, T/C", "setting": "second compound 0.01 µM, first compound 0.00316 µM", "value": 105, "unit": "%"},
      {"measurement": "viability, T/C", "setting": "second compound 0.01 µM, first compound 0.01 µM", "value": 104, "unit": "%"},
      {"measurement": "viability, T/C", "setting": "second compound 0.01 µM, first compound 0.0316 µM", "value": 102, "unit": "%"},
      {"measurement": "viability, T/C", "setting": "second compound 0.01 µM, first compound 0.1 µM", "value": 99.8, "unit": "%"},
      {"measurement": "viability, T/C", "setting": "second compound 0.01 µM, first compound 0.316 µM", "value": 126, "unit": "%"},
      {"measurement": "viability, T/C", "setting": "second compound 0.01 µM, first compound 1 µM", "value": 132, "unit": "%"},
      {"measurement": "viability, T/C", "setting": "[1]", "value": 105, "unit": "%"},
      {"measurement": "viability, T/C", "setting": "[2]", "value": 93.1, "unit": "%"},
      {"measurement": "viability, T/C", "setting": "[3]", "value": 102, "unit": "%"},
      {"measurement": "viability, T/C", "setting": "[4]", "value": 108, "unit": "%"},
      {"measurement": "viability, T/C", "setting": "[5]", "value": 129, "unit": "%"},
      {"measurement": "viability, T/C", "setting": "[6]", "value": 136, "unit": "%"},
      {"measurement": "viability, T/C", "setting": "[7]", "value": 100, "unit": "%"},
      {"measurement": "viability, T/C", "setting": "[8]", "value": 102, "unit": "%"},
      {"measurement": "viability, T/C", "setting": "[9]", "value": 104, "unit": "%"},
      {"measurement": "viability, T/C", "setting": "[10]", "value": 109, "unit": "%"},
      {"measurement": "viability, T/C", "setting": "[11]", "value": 118, "unit": "%"},
      {"measurement": "viability, T/C", "setting": "[12]", "value": 131, "unit": "%"},
      {"measurement": "viability, T/C", "setting": "[13]", "value": 110, "unit": "%"},
      {"measurement": "viability, T/C", "setting": "[14]", "value": 93.1, "unit": "%"},
      {"measurement": "viability, T/C", "setting": "[15]", "value": 101, "unit": "%"},
      {"measurement": "viability, T/C", "setting": "[16]", "value": 104, "unit": "%"},
      {"measurement": "viability, T/C", "setting": "[17]", "value": 126, "unit": "%"},
      {"measurement": "viability, T/C", "setting": "[18]", "value": 140, "unit": "%"},
      {"measurement": "viability, T/C", "setting": "[19]", "value": 102, "unit": "%"},
      {"measurement": "viability, T/C", "setting": "[20]", "value": 105, "unit": "%"},
      {"measurement": "viability, T/C", "setting": "[21]", "value": 109, "unit": "%"},
      {"measurement": "viability, T/C", "setting": "[22]", "value": 107, "unit": "%"},
      {"measurement": "viability, T/C", "setting": "[23]", "value": 129, "unit": "%"},
      {"measurement": "viability, T/C", "setting": "[24]", "value": 122, "unit": "%"}
    ]},
    {"molecule": "CCN1CCN(Cc2ccc(Nc3ncc(F)c(-c4cc(F)c5nc(C)n(C(C)C)c5c4)n3)nc2)CC1", "note": "+ Cc1c(S(C)(=O)=O)c(-c2cc(F)cc(N3CCN(c4ccc(NS(=O)(=O)c5ccc(NC(CCN6CCC(C(=O)OCCCP(=O)(O)O)CC6)CSc6ccccc6)c(S(=O)(=O)C(F)(F)F)c5)cc4)CC3)c2)c(-c2ccc(Cl)cc2)n1C(C)C", "values": [
      {"measurement": "pIC50", "setting": "second compound 0.0316 µM", "value": "< 6.00"},
      {"measurement": "pIC50", "setting": "second compound 0.1 µM", "value": "< 6.00"},
      {"measurement": "pIC50", "setting": "second compound 0.316 µM", "value": "< 6.00"},
      {"measurement": "pIC50", "setting": "second compound 1 µM", "value": "< 6.00"},
      {"measurement": "pIC50", "setting": "second compound 3.16 µM", "value": "< 6.00"},
      {"measurement": "pIC50", "setting": "second compound 10 µM", "value": "< 6.00"},
      {"measurement": "viability, T/C", "setting": "[1]", "value": 97.1, "unit": "%"},
      {"measurement": "viability, T/C", "setting": "[2]", "value": 94, "unit": "%"},
      {"measurement": "viability, T/C", "setting": "[3]", "value": 97.9, "unit": "%"},
      {"measurement": "viability, T/C", "setting": "[4]", "value": 98.7, "unit": "%"},
      {"measurement": "viability, T/C", "setting": "[5]", "value": 117, "unit": "%"},
      {"measurement": "viability, T/C", "setting": "[6]", "value": 130, "unit": "%"},
      {"measurement": "viability, T/C", "setting": "[7]", "value": 98.7, "unit": "%"},
      {"measurement": "viability, T/C", "setting": "[8]", "value": 101, "unit": "%"},
      {"measurement": "viability, T/C", "setting": "[9]", "value": 100, "unit": "%"},
      {"measurement": "viability, T/C", "setting": "[10]", "value": 112, "unit": "%"},
      {"measurement": "viability, T/C", "setting": "[11]", "value": 121, "unit": "%"},
      {"measurement": "viability, T/C", "setting": "[12]", "value": 127, "unit": "%"},
      {"measurement": "viability, T/C", "setting": "[13]", "value": 106, "unit": "%"},
      {"measurement": "viability, T/C", "setting": "[14]", "value": 96.2, "unit": "%"},
      {"measurement": "viability, T/C", "setting": "[15]", "value": 120, "unit": "%"},
      {"measurement": "viability, T/C", "setting": "[16]", "value": 106, "unit": "%"},
      {"measurement": "viability, T/C", "setting": "[17]", "value": 115, "unit": "%"},
      {"measurement": "viability, T/C", "setting": "[18]", "value": 125, "unit": "%"},
      {"measurement": "viability, T/C", "setting": "[19]", "value": 101, "unit": "%"},
      {"measurement": "viability, T/C", "setting": "[20]", "value": 100, "unit": "%"},
      {"measurement": "viability, T/C", "setting": "[21]", "value": 98.1, "unit": "%"},
      {"measurement": "viability, T/C", "setting": "[22]", "value": 109, "unit": "%"},
      {"measurement": "viability, T/C", "setting": "[23]", "value": 121, "unit": "%"},
      {"measurement": "viability, T/C", "setting": "[24]", "value": 116, "unit": "%"},
      {"measurement": "viability, T/C", "setting": "second compound 3.16 µM, first compound 0.00316 µM", "value": 111, "unit": "%"},
      {"measurement": "viability, T/C", "setting": "second compound 3.16 µM, first compound 0.01 µM", "value": 104, "unit": "%"},
      {"measurement": "viability, T/C", "setting": "second compound 3.16 µM, first compound 0.0316 µM", "value": 91.8, "unit": "%"},
      {"measurement": "viability, T/C", "setting": "second compound 3.16 µM, first compound 0.1 µM", "value": 103, "unit": "%"},
      {"measurement": "viability, T/C", "setting": "second compound 3.16 µM, first compound 0.316 µM", "value": 114, "unit": "%"},
      {"measurement": "viability, T/C", "setting": "second compound 3.16 µM, first compound 1 µM", "value": 110, "unit": "%"},
      {"measurement": "viability, T/C", "setting": "second compound 10 µM, first compound 0.00316 µM", "value": 105, "unit": "%"},
      {"measurement": "viability, T/C", "setting": "second compound 10 µM, first compound 0.01 µM", "value": 104, "unit": "%"},
      {"measurement": "viability, T/C", "setting": "second compound 10 µM, first compound 0.0316 µM", "value": 94.7, "unit": "%"},
      {"measurement": "viability, T/C", "setting": "second compound 10 µM, first compound 0.1 µM", "value": 111, "unit": "%"},
      {"measurement": "viability, T/C", "setting": "second compound 10 µM, first compound 0.316 µM", "value": 122, "unit": "%"},
      {"measurement": "viability, T/C", "setting": "second compound 10 µM, first compound 1 µM", "value": 102, "unit": "%"}
    ]}
  ]
}
